From ChEMBL document CHEMBL1201862, “PubChem BioAssay data set” (2004)
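All cell lines were grown in 96-well plates and treated with compound for 48 hours. GI50: concentration for 50% inhibition of growth.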 The source made the active and inactive calls. Rule as the data show it: active = GI50 up to about 1.1 µM and inactive = higher.

Columns and labels:
Test in all cases: NCI anticancer screen, dose series, 48 h
HCT-15 = test system: HCT-15
SK-MEL-5 = test system: SK-MEL-5
SK-MEL-28 = test system: SK-MEL-28
EKVX = test system: EKVX
SF-295 = test system: SF-295
HOP-92 = test system: HOP-92
A549 = test system: A549
SW-620 = test system: SW-620
OVCAR-8 = test system: OVCAR-8
OVCAR-5 = test system: OVCAR-5
OVCAR-4 = test system: OVCAR-4
SNB-19 = test system: SNB-19
HL-60 = test system: HL-60
NCI-H460 = test system: NCI-H460
U-251 = test system: U-251
CCRF-CEM = test system: CCRF-CEM
HT-29 = test system: HT-29
TK-10 = test system: TK-10
MOLT-4 = test system: MOLT-4
SK-OV-3 = test system: SK-OV-3

SMILES | GI50 (HCT-15) [µM] | GI50 (SK-MEL-5) | GI50 (SK-MEL-28) | GI50 (EKVX) | GI50 (SF-295) | GI50 (HOP-92) | GI50 (A549) | GI50 (SW-620) | GI50 (OVCAR-8) | GI50 (OVCAR-5) | GI50 (OVCAR-4) | GI50 (SNB-19) | GI50 (HL-60) | GI50 (NCI-H460) | GI50 (U-251) | GI50 (CCRF-CEM) | GI50 (HT-29) | GI50 (TK-10) | GI50 (MOLT-4) | GI50 (SK-OV-3)
COc1ccc(CCCC(=O)O)c(C)c1 | > 100 | 40.3 µM (inactive) | 91.4 µM (inactive) | > 100 µM (inactive) | 38.8 µM (inactive) | 27.4 µM (inactive) | 58.6 µM (inactive) | 59.2 µM (inactive) | 74.6 µM (inactive) | > 100 µM (inactive) | 48.2 µM (inactive) | 40.1 µM (inactive) | 37.5 µM (inactive) | 11.7 µM (inactive) | 20.8 µM (inactive) | 17.2 µM (inactive) | > 100 µM (inactive) | 81.8 µM (inactive) | 15.7 µM (inactive) | 
COc1nc2[nH]ccc2c(=O)[nH]1 |  | > 100 µM (inactive) | > 100 µM (inactive) | > 100 µM (inactive) | > 100 µM (inactive) | > 100 µM (inactive) | > 100 µM (inactive) | > 100 µM (inactive) | > 100 µM (inactive) | > 100 µM (inactive) | > 100 µM (inactive) | > 100 µM (inactive) | > 100 µM (inactive) | > 100 µM (inactive) | > 100 µM (inactive) | > 100 µM (inactive) | > 100 µM (inactive) | > 100 µM (inactive) | > 100 µM (inactive) | 
COc1cc(C(=O)C/C(CCC(=O)Nc2ccc(Cl)cc2Cl)=N/NC(=O)C(=O)NN)ccc1O | > 100 | > 100 µM (inactive) | > 100 µM (inactive) | 97.7 µM (inactive) | > 100 µM (inactive) | > 100 µM (inactive) | > 100 µM (inactive) | > 100 µM (inactive) | > 100 µM (inactive) | > 100 µM (inactive) | > 100 µM (inactive) | > 100 µM (inactive) | > 100 µM (inactive) | > 100 µM (inactive) | > 100 µM (inactive) | > 100 µM (inactive) | > 100 µM (inactive) | > 100 µM (inactive) |  | > 100 µM (inactive)
c1ccc(CSC(SCc2ccccc2)c2cccc3ccccc23)cc1 | > 10 | > 10 µM (inactive) | > 10 µM (inactive) | > 10 µM (inactive) | 8.85 µM (inactive) |  | > 10 µM (inactive) | > 10 µM (inactive) | > 10 µM (inactive) | > 10 µM (inactive) | > 10 µM (inactive) | > 10 µM (inactive) | > 10 µM (inactive) | > 10 µM (inactive) | > 10 µM (inactive) | > 10 µM (inactive) | > 10 µM (inactive) | > 10 µM (inactive) | > 10 µM (inactive) | > 10 µM (inactive)
O=C(NC(COC(=O)C(Cc1ccccc1)NC(=O)c1ccccc1)Cc1ccccc1)c1ccccc1 (stereo unspecified) | > 50 |  | > 50 µM (inactive) | > 50 µM (inactive) | 32.7 µM (inactive) | > 50 µM (inactive) | > 50 µM (inactive) | > 50 µM (inactive) | > 50 µM (inactive) | > 50 µM (inactive) | > 50 µM (inactive) | 25.6 µM (inactive) | > 50 µM (inactive) | > 50 µM (inactive) | 35 µM (inactive) |  | > 50 µM (inactive) | > 50 µM (inactive) | > 50 µM (inactive) | > 50 µM (inactive)
CCC(C)(C)n1c(C)nc2c1C(=O)c1ccccc1C2=O | 23.1 | 15.7 µM (inactive) | 46.8 µM (inactive) | 34.1 µM (inactive) | 38.9 µM (inactive) |  | 36.5 µM (inactive) | 44.7 µM (inactive) | 36.1 µM (inactive) |  | 37.3 µM (inactive) | 53.3 µM (inactive) | 7.62 µM (inactive) | 12.2 µM (inactive) | 28.8 µM (inactive) | 29.7 µM (inactive) | 31.6 µM (inactive) | 31.8 µM (inactive) | 18.8 µM (inactive) | 44.9 µM (inactive)
COC1/C=C/C(C)C(C(C)C(OC)C(C)CCC(=O)C(C)C(C/C=C/N(C)C=O)OC)OC(=O)/C=C/C=C(\C)CC(OC)CC2=CC(=O)O[C@H](C2)C(C)C(OC)CC(OC)/C=C/C(C)C(OC)C1 (stereo partly specified) | < 0.005 | 0.00518 µM (active) | 0.00875 µM (active) | 0.084 µM (active) | 0.00619 µM (active) | 0.0142 µM (active) | 0.0288 µM (active) | 0.00766 µM (active) | 0.0224 µM (active) |  | 0.0984 µM (active) | 0.0149 µM (active) |  | < 0.005 µM (active) |  | < 0.005 µM (active) | < 0.005 µM (active) |  | < 0.005 µM (active) | 0.00955 µM (active)
COC1OC(=O)[C@H]2O[N+]([O-])=C(C)[C@@H]12 (stereo partly specified) | > 100 | > 100 µM (inactive) | > 100 µM (inactive) | > 100 µM (inactive) | > 100 µM (inactive) | > 100 µM (inactive) | > 100 µM (inactive) | > 100 µM (inactive) | > 100 µM (inactive) | > 100 µM (inactive) | > 100 µM (inactive) | > 100 µM (inactive) | > 100 µM (inactive) | > 100 µM (inactive) | > 100 µM (inactive) | > 100 µM (inactive) | > 100 µM (inactive) |  | > 100 µM (inactive) | > 100 µM (inactive)
Cc1cn(Cc2cnnn2CC2OC(n3cc(C)c(=O)[nH]c3=O)CC2O)c(=O)[nH]c1=O (stereo unspecified) | > 100 | > 100 µM (inactive) | > 100 µM (inactive) | > 100 µM (inactive) | > 100 µM (inactive) | > 100 µM (inactive) | > 100 µM (inactive) | > 100 µM (inactive) | > 100 µM (inactive) | > 100 µM (inactive) | > 100 µM (inactive) | > 100 µM (inactive) |  |  | > 100 µM (inactive) | > 100 µM (inactive) |  | > 100 µM (inactive) | > 100 µM (inactive) | > 100 µM (inactive)
O=c1c(-c2ccccc2)c(SCCCN2CCCCC2)n(-c2ccccc2)c(=S)n1-c1ccccc1 | 17.3 | 16 µM (inactive) | 16.9 µM (inactive) | > 100 µM (inactive) | 17.1 µM (inactive) | 12.1 µM (inactive) |  | 19.6 µM (inactive) | 18.6 µM (inactive) | > 100 µM (inactive) | 24 µM (inactive) |  | 16.6 µM (inactive) | 16.4 µM (inactive) | 15.6 µM (inactive) | 15.7 µM (inactive) |  | 16.9 µM (inactive) | 18.2 µM (inactive) | 19.8 µM (inactive)
COc1ccc(NC(=O)CC/C(CC(=O)c2ccccc2Cl)=N\Nc2nnc(C)n2N)cc1 | > 100 |  | > 100 µM (inactive) | > 100 µM (inactive) | > 100 µM (inactive) | > 100 µM (inactive) | > 100 µM (inactive) | > 100 µM (inactive) | > 100 µM (inactive) | > 100 µM (inactive) | > 100 µM (inactive) | > 100 µM (inactive) | > 100 µM (inactive) | > 100 µM (inactive) | > 100 µM (inactive) | > 100 µM (inactive) | > 100 µM (inactive) | > 100 µM (inactive) | > 100 µM (inactive) | > 100 µM (inactive)
O=C(c1cccs1)N(C(=S)OC12CC3CC(CC(C3)C1)C2)c1ccccc1 | 29.8 | 22.1 µM (inactive) | 54.8 µM (inactive) | 17.8 µM (inactive) | 27.9 µM (inactive) | 24.8 µM (inactive) | 32.8 µM (inactive) | 40.7 µM (inactive) | 31.8 µM (inactive) | 29.4 µM (inactive) | 35 µM (inactive) | 33.7 µM (inactive) | 25 µM (inactive) | 33.3 µM (inactive) | 29.1 µM (inactive) | 15.3 µM (inactive) | 31.8 µM (inactive) | 44 µM (inactive) | 26.1 µM (inactive) | 28.4 µM (inactive)
CC(=O)OCC1OC(n2c(-c3ccc(Cl)cc3)cc(-c3ccccc3)c(C#N)c2=S)C(OC(C)=O)C(OC(C)=O)C1OC(C)=O (stereo unspecified) | 29.9 | 11.4 µM (inactive) | 6.5 µM (inactive) | 17.7 µM (inactive) | 11.5 µM (inactive) | 19.6 µM (inactive) | 14.5 µM (inactive) | 3.3 µM (inactive) | 10 µM (inactive) | 19.6 µM (inactive) | 1.79 µM (inactive) | 8.53 µM (inactive) | 3.18 µM (inactive) | 5.78 µM (inactive) | 8.67 µM (inactive) |  | 7.06 µM (inactive) | 27.4 µM (inactive) | 12.8 µM (inactive) | 12.6 µM (inactive)
CN(C)c1ccc(C2SCC(=O)N2NS(=O)(=O)c2cccc(C(=O)O)c2)cc1 (stereo unspecified) | 76.9 | > 100 µM (inactive) | 97.7 µM (inactive) | > 100 µM (inactive) | 94 µM (inactive) | > 100 µM (inactive) | 99.3 µM (inactive) | > 100 µM (inactive) | 17.7 µM (inactive) | > 100 µM (inactive) |  | > 100 µM (inactive) | 16.3 µM (inactive) | 76.2 µM (inactive) | > 100 µM (inactive) | 0.731 µM (active) | > 100 µM (inactive) | > 100 µM (inactive) | 42.8 µM (inactive) | > 100 µM (inactive)
N#Cc1c(-c2ccccc2)cn(C(=O)c2ccccc2)c1N | > 100 | > 100 µM (inactive) | > 100 µM (inactive) | > 100 µM (inactive) | > 100 µM (inactive) | > 100 µM (inactive) | > 100 µM (inactive) | > 100 µM (inactive) | > 100 µM (inactive) | > 100 µM (inactive) | 21.3 µM (inactive) | > 100 µM (inactive) | > 100 µM (inactive) |  | > 100 µM (inactive) | > 100 µM (inactive) | > 100 µM (inactive) | > 100 µM (inactive) | > 100 µM (inactive) | > 100 µM (inactive)
